Structures are written as SMILES.

Assay in all cases: CDKi biochemical assay (TR-FRET, phosphorylation of S780 on RB1 peptide)
Assay [1] deals with CDK2/CyclinE1 (Homo sapiens, UniProt P24941). Particulars: CDK2/CyclinE1 100 pM, 1 mM ATP, 60 min at 25° C. In outline: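 CDK2/CyclinE1 (Avi-tag, 100 pM; CDK2 E. coli-expressed) phosphorylated His-MBP-RB1[773-924] (200 nM) at S780 with 1 mM ATP in HEPES pH 7.5/MgCl2/DTT, 60 min at 25° C. After EDTA quench, TR-FRET detection ran 3 h (Eu anti-p-RB S780, SA-APC). Apparent IC50 came from percent activity versus log concentration.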

In assay [2] the target is CDK1/CyclinB1 (Homo sapiens, UniProt P06493). The conditions noted are these: CDK1/CyclinB1 10 pM, 1 mM ATP, 60 min at 25° C. In outline:
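CDK1/CyclinB1 (10 pM, Avi-tagged, insect-cell expressed) phosphorylated S780 of His-MBP-RB1[773-924] (200 nM) with 1 mM ATP in HEPES pH 7.5, 10 mM MgCl2, 1 mM DTT, 60 min at 25 °C. After EDTA quench, TR-FRET detection (Eu anti-pRB S780, SA-APC) for 3 h; apparent IC50 from percent activity versus log concentration.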

Assay [3] has as its target CDK4/cyclinD1 (Homo sapiens, UniProt P11802). Particulars: CDK4/cyclinD1 20 pM, 1 mM ATP, 60 min at 25° C. In outline: (§1)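 Avi-tagged, biotinylated CDK4/cyclinD1 (20 pM) or CDK6/cyclinD3 (10 pM) phosphorylates 200 nM His-MBP-RB1[773-924] at S780 with 1 mM ATP in HEPES pH 7.5/MgCl2, 60 min, 25° C. After EDTA quench, Eu anti-pRB(S780)/SA-APC TR-FRET is read after 3 h. Apparent IC50 comes from % activity versus log concentration.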

For assay [4], the target named is CDK6/cyclinD3 (Homo sapiens, UniProt Q00534). The conditions noted are these: CDK6/cyclinD3 10 pM, 1 mM ATP, 60 min at 25° C. In outline:
as §1

By IC50 is commonly meant the point on the concentration scale where inhibition reaches its midpoint. High values mean lower potency, low ones higher potency. In the case of `O=C1N([C@@H]2CCC[C@@H](O)C2)c2nc(Nc3cnn4c3CNCC4)ncc2C12CC2` [Example 9, 7′-((1R,3R)-3-hydroxycyclohexyl)-2′-((4,5,6,7-tetrahydropyrazolo[1,5-a]pyrazin-3-yl)amino)spiro[cyclopropane-1,5′-pyrrolo[2,3-d]pyrimidin]-6′(7′H)-one], the IC50 in assay [1] is 0.268 µM; in assay [2] it was not below 10 µM; in assay [3], not below 10 µM; in assay [4], not below 10 µM.

On to `Cc1n[nH]cc1Nc1ncc2c(n1)N([C@@H]1CCCC[C@@H](O)C1)C(=O)C21CC1` [Example 17, 7′-(3-hydroxycycloheptyl)-2′-((3-methyl-1H-pyrazol-4-yl)amino)spiro[cyclopropane-1,5′-pyrrolo[2,3-d]pyrimidin]-6′(7′H)-one], for which the IC50 is 0.041 µM in assay [1], 4.49 µM in assay [2], not below 10 µM in assay [3] and not below 10 µM in assay [4].

In the case of `O=C1N([C@@H]2CCC[C@@H](O)C2)c2nc(Nc3c[nH]nc3-c3cnn4cccnc34)ncc2C12CC2` [Example 81, 7′-((1R,3R)-3-hydroxycyclohexyl)-2′-((3-(pyrazolo[1,5-a]pyrimidin-3-yl)-1H-pyrazol-4-yl)amino)spiro[cyclopropane-1,5′-pyrrolo[2,3-d]pyrimidin]-6′(7′H)-one], the IC50 in assay [1] was 0.006 µM; in assay [2], 0.41 µM; in assay [3], not below 10 µM; in assay [4] it was not below 10 µM.

Consider `COc1n[nH]cc1Nc1ncc2c(n1)N([C@@H]1CCC[C@@H](O)C1)C(=O)C21CC1` [Example 12, 7′-((1R,3R)-3-hydroxycyclohexyl)-2′-((3-methoxy-1H-pyrazol-4-yl)amino)spiro[cyclopropane-1,5′-pyrrolo[2,3-d]pyrimidin]-6′(7′H)-one], for which the IC50 in assay [1] was found to be 0.02 µM; in assay [2], 2.24 µM; in assay [3] it was 7.37 µM; in assay [4] it was 7.9 µM.

Consider `Cn1cc(Oc2n[nH]cc2Nc2ncc3c(n2)N([C@@H]2CCC[C@@H](O)C2)C(=O)C32CC2)cn1` [Example 35, 7′-((1R,3R)-3-hydroxycyclohexyl)-2′-((3-((1-methyl-1H-pyrazol-4-yl)oxy)-1H-pyrazol-4-yl)amino)spiro[cyclopropane-1,5′-pyrrolo[2,3-d]pyrimidin]-6′(7′H)-one], for which the IC50 in assay [1] is 0.054 µM; in assay [2], 3.16 µM; in assay [3] it was not below 10 µM; in assay [4], not below 10 µM.

For the molecule `O=C1N([C@@H]2CCC[C@@H](O)C2)c2nc(Nc3c[nH]nc3OC3(CF)CC3)ncc2C12CC2` [Example 85, 2′-((3-(1-(fluoromethyl)cyclopropoxy)-1H-pyrazol-4-yl)amino)-7′-((1R,3R)-3-hydroxycyclohexyl)spiro[cyclopropane-1,5′-pyrrolo[2,3-d]pyrimidin]-6′(7′H)-one], the 50% inhibitory concentration (IC50) in assay [1] is 0.027 µM; in assay [2] it was 1.71 µM; in assay [3], 4.4 µM; in assay [4], not below 10 µM.

`O=C1N([C@@H]2CCC[C@@H](O)C2)c2nc(Nc3c[nH]nc3Cl)ncc2C12CC2` [Example 13, 2′-((3-chloro-1H-pyrazol-4-yl)amino)-7′-((1R,3R)-3-hydroxycyclohexyl)spiro[cyclopropane-1,5′-pyrrolo[2,3-d]pyrimidin]-6′(7′H)-one]: the IC50 in assay [1] was 0.012 µM; in assay [2], 0.92 µM; in assay [3], 5.28 µM; in assay [4] it was 7.1 µM.

For `O=C1N([C@@H]2CCC[C@@H](O)C2)c2nc(Nc3c[nH]nc3-c3cnn4c3CCC4)ncc2C12CC2` [Example 47, 2′-((3-(5,6-dihydro-4H-pyrrolo[1,2-b]pyrazol-3-yl)-1H-pyrazol-4-yl)amino)-7′-((1R,3R)-3-hydroxycyclohexyl)spiro[cyclopropane-1,5′-pyrrolo[2,3-d]pyrimidin]-6′(7′H)-one], the IC50 in assay [1] was 0.027 µM; in assay [2], not below 10 µM; in assay [3], 6.38 µM; in assay [4] it was 7.55 µM.

For the origin of these results see patent publication US20240360137A1 (Novartis AG, priority 2023, published 2024).
